Laboratory results as given in ChEMBL document CHEMBL6120937, “PROTAC technology: From drug development to probe technology for target deconvolution” (Eur J Med Chem, 2024).
pIC50: −log10 of the molar value.

Experiments:
[1] = system: Jurkat; assay: Antiproliferative activity against human Jurkat cells assessed as reduction in cell viability incubated for 72 hrs by CCK-8 assay; assay type: functional, cell-based
[2] = Inhibition of hedgehog in […] cells; assay type: cell-based
[3] = system: HCT-116; assay: Cytotoxicity against human HCT-116 cells assessed as reduction in cell growth incubated for 72 hrs by CCK-8 assay; assay type: functional, cell-based; conditions: HCT-116, 72 h
[4] = system: RAW264.7; assay: Anti-inflammatory activity in mouse RAW264.7 cells assessed as inhibition of LPS-induced NO production incubated for 24 hrs by Griess reagent based analysis; assay type: functional, cell-based; conditions: RAW264.7, 24 h

CC1=C(O)C(=O)C=C2C1=CC=C1[C@@]2(C)CC[C@@]2(C)[C@@H]3C[C@](C)(C(=O)NCCOCCNc4cccc5c4C(=O)N(C4CCC(=O)NC4=O)C5=O)CC[C@]3(C)CC[C@@]12C (some centres undefined)
pIC50 [1]: 6.60

COCCOC(=O)C1=C(c2cccc(OCc3cn(CCCCCCOc4cccc5c4C(=O)N(C4CCC(=O)NC4=O)C5=O)nn3)c2)C2=C(CC(c3ccccc3OC)CC2=O)NC1C (centres undefined)
pIC50 [2]: 5.21

CN1c2ccc(F)cc2C(=O)N2CCc3c([nH]c4ccc(OCCCNC(=O)CCCCCC#Cc5cccc6c5CN(C5CCC(=O)NC5=O)C6=O)cc34)C21 (centres undefined)
pIC50 [3]: 7.70

C=C1CCC2C(/C=C(\C)C(=O)[C@@]3(O)C[C@H](C)[C@H](O)C3[C@H]1OCc1cn(CCOCCOCCOCCNc3cccc4c3C(=O)N(C3CCC(=O)NC3=O)C4=O)nn1)C2(C)C (some centres undefined)
pIC50 [4]: 5.08
